{"source": "patent US10077268B2", "about": "“FXR agonists and methods for making and using” (Salk Institute for Biological Studies, priority 2014, dated 2018)", "key": {"[1]": {"test_system": "DIO mice", "test": "Hyperinsulinemic-euglycemic clamp in DIO mice", "assay_type": "in vivo", "experimental": "FIGS. 15I-15K are a line graph and two bar graphs showing the effect of fexaramine treatment on body weight, insulin-stimulated GDR, and fasting insulin levels. Mice were fed HFD for 14 weeks, and then administered daily oral injections of vehicle or fexaramine (100 mg/kg) for 3 weeks with HFD. The mice treated with fexaramine were initially heavier (by 2-3 grams). Three weeks after treatment, a clamp study was performed on the mice. Data represent the mean±STD. Statistical analysis was performed with the Student's t test (*p<0.05, **p<0.01)."}, "[2]": {"test_system": "FXR target gene expression", "test": "FXR target gene expression (qPCR) after acute PO or IP treatment", "assay_type": "in vivo, C57BL/6J mice", "details": "for FXR target genes (IBABP, OSTα, FGF15) in liver or kidney / FXR target genes (IBABP, OSTα, FGF15) in the intestine: PO", "experimental": "FIGS. 1A-1C are a comparative expression chart and two bar charts, respectively, illustrating increased levels of FXR target gene expression in the intestine relative to expression in the liver and kidney. 8 week-old C57BL/6J mice were treated with vehicle or fexaramine (100 mg/kg) via oral (PO) or intraperitoneal (IP) injection for three days (FIGS. 1A-1B) or five days (FIG. 1C).\nFXR target gene expression was analyzed by qPCR. Gene expression was normalized against a vehicle-treated group.\nFIG. 1F is a bar chart illustrating that orally delivered fexaramine is intestinally-restricted. Mice received vehicle or Fexaramine (100 mg/kg) via per os (PO) or intraperitoneal (IP) injection for 5 days. Expression of the FXR target gene SHP after PO or IP injection in selected tissues is shown.\n(§1) Upon exploration of the in vivo effects of fexaramine (Fex) administration, it was discovered that due to ineffectual absorption, oral (PO) and intraperitoneal (IP) drug delivery produced very different effects (FIGS. 1D and 1E)."}, "[3]": {"test_system": "TGR5 null mice", "test": "HFD-fed TGR5-null mice", "assay_type": "in vivo", "details": "100 mg/kg/day PO 5 weeks", "experimental": "HFD-fed TGR5-null mice were treated with vehicle or fexaramine (100 mg/kg os daily for 5 weeks with HFD, n=10). (A) Ileal FXR target gene expressions (B) Serum BA levels (C) Fasting glucose levels (D) Glucose tolerance test (E) Core body temperature (F) Oxygen consumption rate (G) Carbon dioxide production (H) Gene expression in BAT (I) Body weight curve (J) Body composition by MRI (K) Insulin Tolerance Test (L) Hepatic gene expression (M) Hepatic TG levels (N) and Gene expression in soleus of TGR5 knockout mice with and without fexaramine treatment. For bar graphs, vehicle is left bar, Fex is right bar. Data represent the mean±SD. Statistical analysis was performed with the Student's t test. *p<0.05, **p<0.01.\nTo address this possibility, HFD-fed TGR5 null mice were chronically treated with Fex (100 mg/kg/day PO for 5 weeks). […] In particular, the anti-lipogenic effects of Fex in the liver appear to require TGR5 activation, as key hepatic lipogenic genes and liver triglyceride content were not affected by Fex treatment (FIGS. 11L, 11M)."}, "[4]": {"target": "T1, human TGR5 (Homo sapiens, UniProt Q8TDU6)", "T1 construct": "expressed in transfected cells; host or cells: HEK293", "T1 sequence (Q8TDU6 1-330)": "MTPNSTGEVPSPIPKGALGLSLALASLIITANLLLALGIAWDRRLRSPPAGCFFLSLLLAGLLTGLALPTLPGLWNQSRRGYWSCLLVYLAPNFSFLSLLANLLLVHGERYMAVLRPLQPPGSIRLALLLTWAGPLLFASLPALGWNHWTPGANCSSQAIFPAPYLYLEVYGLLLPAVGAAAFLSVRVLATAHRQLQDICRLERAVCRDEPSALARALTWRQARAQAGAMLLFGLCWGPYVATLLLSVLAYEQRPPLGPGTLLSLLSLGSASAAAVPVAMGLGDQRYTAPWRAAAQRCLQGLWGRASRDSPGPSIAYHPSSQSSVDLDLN", "test": "cAMP-response element luciferase reporter in HEK293 cells transfected with human TGR5", "assay_type": "cell-based", "experimental": "HEK293 cells were transfected with expression vectors for cAMP-response element luciferase, β-galactosidase and human TGR5. 24 hours after transfection, cells were treated with fexaramine or INT-777 (a TGR5 agonist)."}, "[5]": {"test_system": "normal chow-fed mice", "test": "Chronic oral treatment of normal chow-fed mice", "assay_type": "in vivo", "experimental": "FIGS. 3A-3D are line graphs and a bar graph showing the effects of fexaramine administration in normal chow-fed mice. The mice were treated with vehicle (left bar) or fexaramine (100 mg/kg) (right bar) via PO for 5 weeks. Data represent the mean±STD. Statistical analysis as performed with the Student's t test (*p<0.05, **p<0.01).\nTo investigate the physiological effects of intestinal FXR activation by fexaramine, mice were subjected to chronic fexaramine (100 mg/kg Fex) PO treatment for 5 weeks."}, "[6]": {"test": "LC/MS quantification of serum fexaramine after PO or IP", "assay_type": "in vivo, mice", "experimental": "FIG. 1D is a schematic diagram illustrating an experimental procedure used to evaluate fexaramine, where mice were treated with vehicle or fexaramine (100 mg/kg) via PO or IP injection, and LC/MS quantification of serum fexaramine was conducted five days later.\nFIG. 1E is a bar chart illustrating serum fexaramine concentrations after administration as described in FIG. 1D. Data represent mean values±STD. Statistical analysis was performed with the Student's t test (*p<0.05, **p<0.01).\nas §1"}}, "note": "Where two headings read alike, the source gives them in different places.", "data": [{"compound": "COC(=O)/C=C/c1cccc(N(Cc2ccc(-c3ccc(N(C)C)cc3)cc2)C(=O)C2CCCCC2)c1", "note": "[fexaramine]", "values": [{"measurement": "insulin-mediated suppression of HGP", "setting": "[1]; compared to control DIO mice", "result": "marked increase"}, {"measurement": "basal HGP, GDR, IS-GDR, FFA suppression and fasting insulin levels", "setting": "[1]; weight-matched cohorts", "result": "No differences"}, {"measurement": "FXR target gene expression in the liver and kidney after IP injection", "setting": "[2]; IP, 100 mg/kg, five days", "result": "increases FXR target gene expression in the liver and kidney"}, {"measurement": "induction of SHP in liver and kidney", "setting": "[2]; PO versus IP, 100 mg/kg for five days", "result": "only seen in liver and kidney after IP treatment"}, {"measurement": "FXR target genes (IBABP, OSTα, FGF15) in liver or kidney", "setting": "[2]; 100 mg/kg", "result": "not in the liver or kidney"}, {"measurement": "FXR target genes (IBABP, OSTα, FGF15) in the intestine", "setting": "[2]; 100 mg/kg", "result": "substantially enhances FXR target gene expression in the intestine"}, {"measurement": "FXR target genes (IBABP, OSTα, FGF15) in liver or kidney", "setting": "[2]; 100 mg/kg, listed as Fex", "result": "failed to affect the expression of these genes in liver or kidney"}, {"measurement": "FXR target genes (IBABP, OSTα, FGF15) in the intestine", "setting": "[2]; 100 mg/kg, listed as Fex", "result": "induced multiple FXR target genes in the intestine"}, {"measurement": "induction of FXR target gene SHP throughout the intestine", "setting": "[2]; acute PO and IP, 100 mg/kg for five days", "result": "robust induction"}, {"measurement": "FXR target genes in the ileum of TGR5 null mice", "setting": "[3]", "result": "induced multiple FXR target genes"}, {"measurement": "core body temperature and metabolic rate in TGR5 null mice", "setting": "[3]", "result": "somewhat blunted increases"}, {"measurement": "fasting glucose levels and glucose tolerance in TGR5 null mice", "setting": "[3]", "result": "moderate improvements"}, {"measurement": "key hepatic lipogenic genes and liver triglyceride content in TGR5 null mice", "setting": "[3]", "result": "not affected"}, {"measurement": "serum BA levels in TGR5 null mice", "setting": "[3]", "result": "lowered serum BA levels"}, {"measurement": "weight gain or insulin sensitivity in TGR5 null mice", "setting": "[3]", "result": "no significant changes"}, {"measurement": "activation of TGR5", "setting": "[4]", "result": "fails to activate TGR5"}, {"measurement": "activation of TGR5", "setting": "[4]; listed as Fex", "result": "does not activate"}, {"measurement": "glucose homeostasis in normal chow-fed mice", "setting": "[5]; across a range of doses", "result": "no effects observed"}, {"measurement": "weight gain, basal metabolic activity and glucose tolerance", "setting": "[5]; chow-fed, 100 mg/kg PO 5 weeks", "result": "indistinguishable from vehicle-treated mice"}, {"measurement": "serum Fex level after PO compared to IP", "setting": "[6]; acute PO vs IP, 100 mg/kg", "result": "10 % of IP levels"}, {"measurement": "absorption after oral delivery", "setting": "[6]; oral", "result": "poorly absorbed"}]}]}
